In patent publication US8563542B2 (Cyclacel Limited, priority 2007, dated 2013):

Target: T1, AA (Homo sapiens, UniProt O14965)
T1 sequence (O14965 1-403): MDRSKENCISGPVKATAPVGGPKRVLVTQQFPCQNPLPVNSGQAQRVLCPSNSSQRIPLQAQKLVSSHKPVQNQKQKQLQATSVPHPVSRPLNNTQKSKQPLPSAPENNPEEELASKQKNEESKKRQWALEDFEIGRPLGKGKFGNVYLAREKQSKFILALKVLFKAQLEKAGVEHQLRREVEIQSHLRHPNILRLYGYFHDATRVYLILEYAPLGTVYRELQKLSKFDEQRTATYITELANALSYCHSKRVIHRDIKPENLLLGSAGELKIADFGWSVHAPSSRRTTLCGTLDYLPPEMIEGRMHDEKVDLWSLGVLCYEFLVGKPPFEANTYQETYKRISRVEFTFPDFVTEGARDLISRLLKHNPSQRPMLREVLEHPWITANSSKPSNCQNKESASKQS
Assay: AA IC50 (Table 1; no method given)
Type: biochemical
Settings: Table 2, AurA IC50; class symbols; read-out: AurA IC50

**Q.** Which IC50 does the source give for `CN1C(=O)CCN(Cc2ccccc2)c2nc(Nc3ccc4c(c3)CS(=O)(=O)C4)ncc21` [compound 82, 9-Benzyl-2-(2,2-dioxo-2,3-dihydro-1H-2lambda*6*-benzo[c]thiophen-5-ylamino)-5-methyl-5,7,8,9-tetrahydro-pyrimido[4,5-b][1,4]diazepin-6-one] here?
**A.** < 1000 nM

**Q.** For `CN1CCN(S(=O)(=O)c2ccc(Nc3ncc4c(n3)N(C3CCCC3)CCC(=O)N4C)cc2)CC1` [compound 105, 9-Cyclopentyl-5-methyl-2-[4-(4-methyl-piperazine-1-sulfonyl)-phenylamino]-5,7,8,9-tetrahydro-pyrimido[4,5-b][1,4]diazepin-6-one], which IC50 is on record?
**A.** < 1000 nM

**Q.** For `CN1C(=O)CCN(CC2CC2)c2nc(Nc3ccc4c(c3)CS(=O)(=O)C4)ncc21` [compound 114, 9-Cyclopropylmethyl-2-(2,2-dioxo-2,3-dihydro-1H-2lambda*6*-benzo[c]thiophen-5-ylamino)-5-methyl-5,7,8,9-tetrahydro-pyrimido[4,5-b][1,4]diazepin-6-one], which IC50 is on record?
**A.** < 100 nM

**Q.** `CC(C)CCN1CCC(=O)N(C)c2cnc(Nc3ccc4c(c3)CS(=O)(=O)C4)nc21` [compound 116, 2-(2,2-Dioxo-2,3-dihydro-1H-2lambda*6*- benzo[c]thiophen-5-ylamino)-5-methyl-9-(3-methyl-butyl)-5,7,8,9-tetrahydro-pyrimido[4,5-b][1,4]diazepin-6-one] was tested. Which IC50 did it give?
**A.** < 1000 nM

**Q.** `CN1C(=O)C2(CCCC2)CN(C2CCCC2)c2nc(Nc3ccc4c(c3)CS(=O)(=O)C4)ncc21` [compound 118, (9-Cyclopentyl-2-(2,2-dioxo-2,3-dihydro-1H-2lambda*6*-benzo[c]thiophen-5-ylamino)5-methyl-6-oxo-6,7,8,9-tetrahydro-5H-spiro[pyrimido[4,5-b][1,4]diazepin-3,1′-cyclopentane]] was tested. Which IC50 did it give?
**A.** < 1000 nM

**Q.** With `CCC(CC)N1CCC(=O)N(CC)c2cnc(Nc3ccc4c(c3)CS(=O)(=O)C4)nc21` [compound 120, 2-(2,2-Dioxo-2,3-dihydro-1H-2lambda*6*- benzo[c]thiophen-5-ylamino)-5-ethyl-9-(1-ethyl-propyl)-5,7,8,9-tetrahydro-pyrimido[4,5-b][1,4]diazepin-6-one] as the molecule, how does the IC50 read?
**A.** < 100 nM

**Q.** Which IC50 does the source give for `CN1C(=O)CCN(C(C)(C)C)c2nc(Nc3ccc4c(c3)CS(=O)(=O)C4)ncc21` [compound 121, 9-tert-Butyl-2-(2,2-dioxo-2,3-dihydro-1H-2lambda*6*-benzo[c]thiophen-5-ylamino)-5-methyl-5,7,8,9-tetrahydro-pyrimido[4,5-b][1,4]diazepin-6-one] here?
**A.** < 1000 nM

**Q.** Which IC50 does the source give for `CCN1C(=O)CCN(C(C)(C)C)c2nc(Nc3ccc4c(c3)CS(=O)(=O)C4)ncc21` [compound 122, 9-tert-Butyl-2-(2,2-dioxo-2,3-dihydro-1H-2lambda*6*-benzo[c]thiophen-5-ylamino)-5-ethyl-5,7,8,9-tetrahydro-pyrimido[4,5-b][1,4]diazepin-6-one] here?
**A.** < 1000 nM

**Q.** Which IC50 does the source give for `CCN1C(=O)CCNc2nc(Nc3ccc4c(c3)CS(=O)(=O)C4)ncc21` [compound 126, 2-(2,2-Dioxo-2,3-dihydro-1H-2lambda*6*- benzo[c]thiophen-5-ylamino)-5-ethyl-5,7,8,9-tetrahydro-pyrimido[4,5-b][1,4]diazepin-6-one] here?
**A.** < 10000 nM

**Q.** Which IC50 does the source give for `COc1ccccc1N1CCC(=O)N(C)c2cnc(Nc3ccc4c(c3)CS(=O)(=O)C4)nc21` [compound 133, 2-(2,2-Dioxo-2,3-dihydro-1H-2lambda*6*- benzo[c]thiophen-5-ylamino)-9-(2-methoxy-phenyl)-5-methyl-5,7,8,9-tetrahydro-pyrimido[4,5-b][1,4]diazepin-6-one] here?
**A.** < 1000 nM

**Q.** For `Cc1ccccc1N1CCC(=O)N(C)c2cnc(Nc3ccc4c(c3)CS(=O)(=O)C4)nc21` [compound 134, 2-(2,2-Dioxo-2,3-dihydro-1H-2lambda*6*- benzo[c]thiophen-5-ylamino)-5-methyl-9-o-tolyl-5,7,8,9-tetrahydro-pyrimido[4,5-b][1,4]diazepin-6-one], which IC50 is on record?
**A.** < 1000 nM

**Q.** For `CN1C(=O)CCN(c2ccccc2Cl)c2nc(Nc3ccc4c(c3)CS(=O)(=O)C4)ncc21` [compound 135, 9-(2-Chloro-phenyl)-2-(2,2-dioxo-2,3-dihydro-1H-2lambda*6*-benzo[c]thiophen-5-ylamino)-5-methyl-5,7,8,9-tetrahydro-pyrimido[4,5-b][1,4]diazepin-6-one], which IC50 is on record?
**A.** < 1000 nM

**Q.** For `COc1cccc(N2CCC(=O)N(C)c3cnc(Nc4ccc5c(c4)CS(=O)(=O)C5)nc32)c1` [compound 136, 2-(2,2-Dioxo-2,3-dihydro-1H-2lambda*6*- benzo[c]thiophen-5-ylamino)-9-(3-methoxy-phenyl)-5-methyl-5,7,8,9-tetrahydro-pyrimido[4,5-b][1,4]diazepin-6-one], which IC50 is on record?
**A.** < 1000 nM

**Q.** Which IC50 does the source give for `CC(Cc1c[nH]c2ccccc12)Nc1ncc2c(n1)N(C1CCCC1)CCC(=O)N2C` (stereo not drawn) [compound 175, 9-Cyclopentyl-2-[2-(1H-indo1-3-yl)-1-methyl-ethylamino]-5-methyl-5,7,8,9-tetrahydro-pyrimido[4,5-b][1,4]diazepin-6-one] here?
**A.** < 10000 nM

**Q.** `COc1ccc(N2CCN(c3ncc4c(n3)N(C3CCCC3)CCC(=O)N4C)CC2)cc1` [compound 213, 9-Cyclopentyl-2-[4-(4-methoxy-phenyl)-piperazin-1-yl]-5-methyl-5,7,8,9-tetrahydro-pyrimido[4,5-b][1,4]diazepin-6-one] was tested. Which IC50 did it give?
**A.** < 10000 nM

**Q.** How did the IC50 turn out when `CC(=O)Nc1ccc(Nc2ncc3c(n2)N(C2CCCC2)CCC(=O)N3C)cc1C(F)(F)F` [compound 286, N-[4-(9-Cyclopentyl-5-methyl-6-oxo-6,7,8,9-tetrahydro-5H-pyrimido[4,5-b][1,4]diazepin-2-ylamino)-2-trifluoromethyl-phenyl]-acetamide] was run?
**A.** < 1000 nM

**Q.** `Cc1cc(Nc2ncc3c(n2)N(C2CCCC2)CCC(=O)N3C)ccc1N(S(C)(=O)=O)S(C)(=O)=O` [compound 288] was tested. Which IC50 did it give?
**A.** < 100 nM

**Q.** For `CN1C(=O)CCN(C2CCCC2)c2nc(Nc3ccc(S(=O)(=O)NC4CCS(=O)(=O)C4)cc3)ncc21` (stereo not drawn) [compound 325, 4-(9-Cyclopentyl-5-methyl-6-oxo-6,7,8,9-tetrahydro-5H-pyrimido[4,5-b][1,4]diazepin-2-ylamino)-N-(1,1-dioxo-tetrahydro-1lambda*6*- thiophen-3-yl)-benzenesulfonamide], which IC50 is on record?
**A.** < 1000 nM

**Q.** For `COc1ccc(N2CCC(=O)N(C)c3cnc(Nc4ccc(NC(=O)C5CC5)c(C)c4)nc32)cc1` [compound 327, Cyclopropanecarboxylic acid {4-[9-(4-methoxy-phenyl)-5-methyl-6-oxo-6,7,8,9-tetrahydro-5H-pyrimido[4,5-b][1,4]diazepin-2-ylamino]-2-methyl-phenyl}-amide], which IC50 is on record?
**A.** < 100 nM

**Q.** `CCN1C(=O)CCN(c2ccc(C)cc2)c2nc(Nc3ccc(NC(=O)C4CC4)c(C)c3)ncc21` [compound 328, Cyclopropanecarboxylic acid [4-(5-ethyl-6-oxo-9-p-tolyl-6,7,8,9-tetrahydro-5H-pyrimido[4,5-b][1,4]diazepin-2-ylamino)-2-methyl-phenyl]-amide] was tested. Which IC50 did it give?
**A.** < 10000 nM

**Q.** Which IC50 does the source give for `Cc1cc(Nc2ncc3c(n2)N(c2c(F)cccc2F)CCC(=O)N3C)ccc1NC(=O)C1CC1` [compound 329, Cyclopropanecarboxylic acid {4-[9-(2,6-difluoro-phenyl)-5-methyl-6-oxo-6,7,8,9-tetrahydro-5H-pyrimido[4,5-b][1,4]diazepin-2-ylamino]-2-methyl-phenyl}amide] here?
**A.** < 1000 nM

**Q.** With `CCN1C(=O)CCN(c2ccc(OC)cc2)c2nc(Nc3ccc(NC(=O)C4CC4)c(C)c3)ncc21` [compound 330, Cyclopropanecarboxylic acid {4-[5-ethyl-9-(4-methoxy-phenyl)-6-oxo-6,7,8,9-tetrahydro-5H-pyrimido[4,5-b][1,4]diazepin-2-ylamino]-2-methyl-phenyl}-amide] as the molecule, how does the IC50 read?
**A.** < 10000 nM

**Q.** Which IC50 does the source give for `CCN1C(=O)CCN(c2ccc(C)cc2)c2nc(Nc3ccc4c(c3)CS(=O)(=O)C4)ncc21` [compound 331, 2-(2,2-Dioxo-2,3-dihydro-1H-2lambda*6*- benzo[c]thiophen-5-ylamino)-5-ethyl-9-p-tolyl-5,7,8,9-tetrahydro-pyrimido[4,5-b][1,4]diazepin-6-one] here?
**A.** < 100 nM

**Q.** Which IC50 does the source give for `COc1ccc(N2CCC(=O)N(C)c3cnc(Nc4ccc5c(c4)CS(=O)(=O)C5)nc32)cc1` [compound 332, 2-(2,2-Dioxo-2,3-dihydro-1H-2lambda*6*- benzo[c]thiophen-5-ylamino)-9-(4-methoxy-phenyl)-5-methyl-5,7,8,9-tetrahydro-pyrimido[4,5-b][1,4]diazepin-6-one] here?
**A.** < 100 nM

**Q.** Which IC50 does the source give for `CCN1C(=O)CCN(c2ccc(OC)cc2)c2nc(Nc3ccc4c(c3)CS(=O)(=O)C4)ncc21` [compound 333, 2-(2,2-Dioxo-2,3-dihydro-1H-2lambda*6*- benzo[c]thiophen-5-ylamino)-5-ethyl-9-(4-methoxy-phenyl)-5,7,8,9-tetrahydro-pyrimido[4,5-b][1,4]diazepin-6-one] here?
**A.** < 100 nM

**Q.** `CN1C(=O)CCN(c2ccc(C(C)(C)C)cc2)c2nc(Nc3ccc4c(c3)CS(=O)(=O)C4)ncc21` [compound 334, 9-(4-tert-Butyl-phenyl)-2-(2,2-dioxo-2,3-dihydro-1H-2lambda*6*-benzo[c]thiophen-5-ylamino)-5-methyl-5,7,8,9-tetrahydro-pyrimido[4,5-b][1,4]diazepin-6-one] was tested. Which IC50 did it give?
**A.** < 10000 nM

**Q.** With `CCN1C(=O)CCN(c2ccc(C(C)(C)C)cc2)c2nc(Nc3ccc4c(c3)CS(=O)(=O)C4)ncc21` [compound 335, 9-(4-tert-Butyl-phenyl)-2-(2,2-dioxo-2,3-dihydro-1H-2lambda*6*-benzo[c]thiophen-5-ylamino)-5-ethyl-5,7,8,9-tetrahydro-pyrimido[4,5-b][1,4]diazepin-6-one] as the molecule, how does the IC50 read?
**A.** < 10000 nM
